# Results taken from publication PMC11111408, “Concurrent inhibition of oncogenic and wild-type RAS-GTP for cancer therapy” (Nature, 2024).
# “And” between values parts separate entries of the source, which are not always exact repeats. Equal entries are not always repeated.
# How the values were obtained:
# [1] = test system: NCI-H358 cells (CYPA-high, CYPA-low); test: Proliferation (CTG) of NCI-H358 cells with low or high CYPA; assay type: cell-based, human
# Method: Data points show biological duplicates normalized to vehicle control. […] Data points show biological duplicates normalized to vehicle control from 1 of 2–26 independent experiments. Source Data
# Alternatively, cells were seeded in round-bottom ultra-low attachment 96-well plates, centrifuged at 1,000 rpm for 10 min to pellet the cells, and incubated overnight or up to 72 h to allow for 3D spheroid formation. […] Cell viability was determined by CellTiter-Glo 2.0 reagent (2D CTG) (Promega, G9243) or 3D CellTiter-Glo reagent (3D CTG) (Promega, G9683) according to the manufacturer’s protocols. Luminescence was detected using a SpectraMax M5 Plate Reader (Molecular Devices) of Perkin Elmer Enspire. Luminescence signal was normalized to vehicle-treated wells (normalized signal (%) = (luminescence (treated)/mean luminescence (vehicle)) × 100%). […] Data were plotted as log [inhibitor (M)], and a four-parameter sigmoidal concentration response model was fitted to the data to calculate EC50. […] Pa16C MEK1 mutant cells were evaluated by live-cell counting using Calcein AM and a SpectraMax i3X multi-mode detection platform (Molecular Devices). Growth percentages were calculated by normalizing the treated cell counts to their respective untreated cell counts.
# [2] = target: KRAS^G12C (Homo sapiens, UniProt P01116+P62937, G12C); test: Cellular RAS–RAF (CRAF RBD) disruption, nano-BRET in U2OS cells; assay type: cell-based; set-up: expressed in transfected cells; host or cells: U2OS; details: (95% CI)
# Description: (§1) KRAS4B, or other small GTPases, containing the indicated mutations were cloned in pNLF-N or pHTN plasmids for expression with an N-terminal nanoluciferase or HaloTag fusion, respectively. […] The following day, the cells were collected by Trypsin and reseeded in a white tissue culture-treated 96-well plate in OptiMem phenol red-free medium (Gibco) containing 4% FBS and a 1:1,000 dilution of NanoBRET 618 HaloTag ligand (Promega). For endpoint concentration response curves, vivazine nanoluciferase substrate was added to 1× concentration in OptiMem phenol red-free medium with 4% FBS. Varying concentrations of inhibitor were added and incubated for 1 or 4 h before the nano-BRET signal was measured on a Perkin Elmer Envision plate reader. For kinetic assays, endurazine nanoluciferase substrate was used in place of vivazine, and the plate was placed in a Cytation5 multi-mode reader pre-equilibrated to 37 °C and 5% CO2.
# [3] = target: KRAS^G12D (Homo sapiens, UniProt P01116+P62937, G12D); test: as above; assay type: cell-based; set-up: expressed in transfected cells; host or cells: U2OS; details: (95% CI)
# Description: as §1
# [4] = target: KRAS WT (Homo sapiens, UniProt P01116+P62937); test: as above; assay type: cell-based; set-up: expressed in transfected cells; host or cells: U2OS; details: (95% CI)
# Description: as §1
# [5] = target: T1, KRAS^G13C (Homo sapiens, UniProt P01116+P62937, G13C); test: as above; assay type: cell-based; set-up: expressed in transfected cells; host or cells: U2OS; details: (95% CI)
# Description: as §1
# [6] = target: KRAS^G12R (Homo sapiens, UniProt P01116+P62937, G12R); test: as above; assay type: cell-based; set-up: expressed in transfected cells; host or cells: U2OS; details: (95% CI)
# Description: as §1
# [7] = target: HRAS^G13R (Homo sapiens, UniProt P01112+P62937, G13R); test: Biochemical RAS–RAF (BRAF RBD) disruption, TR-FRET; details: HRAS^G13R; BRAF RBD; (95% CI); read-out: Biochemical RAS-RAF Disruption EC50
# Description: (§2) Time-resolved fluorescence resonance energy transfer (TR-FRET) was used as previously described to assess disruption of the interactions between wild-type RAS or the mutant oncogenic RAS proteins and the RAS-binding domain of BRAF, and to assess the induction of interactions between the RAS proteins and CYPA[12].
# [8] = target: NRAS^Q61R (Homo sapiens, UniProt P01111+P62937, Q61R); test: Biochemical RAS–RAF (BRAF RBD) disruption, TR-FRET; details: (95% CI)
# Description: as §2
# [9] = target: KRAS^G12A (Homo sapiens, UniProt P01116+P62937, G12A); test: Biochemical RAS–RAF (BRAF RBD) disruption, TR-FRET
# Description: as §2
# [10] = target: T1, KRAS^G13C; test: Biochemical RAS–RAF (BRAF RBD) disruption, TR-FRET
# Description: as §2
# [11] = target: KRAS^G13D (Homo sapiens, UniProt P01116+P62937, G13D); test: Biochemical RAS–RAF (BRAF RBD) disruption, TR-FRET
# Description: as §2
# [12] = target: NRAS^Q61K (Homo sapiens, UniProt P01111+P62937, Q61K); test: Biochemical RAS–RAF (BRAF RBD) disruption, TR-FRET
# Description: as §2
# [13] = target: NRAS^Q61L (Homo sapiens, UniProt P01111+P62937, Q61L); test: Biochemical RAS–RAF (BRAF RBD) disruption, TR-FRET; details: (95% CI)
# Description: as §2
# [14] = target: NRAS WT (Homo sapiens, UniProt P01111+P62937); test: Biochemical RAS–RAF (BRAF RBD) disruption, TR-FRET
# Description: as §2
# [15] = target: KRAS^Q61H (Homo sapiens, UniProt P01116+P62937, Q61H); test: Biochemical RAS–RAF (BRAF RBD) disruption, TR-FRET
# Description: as §2
compound,measurement,setting,value
CCn1c(-c2cc(N3CCN(C4CC4)CC3)cnc2[C@H](C)OC)c2c3cc(ccc31)-c1csc(n1)C[C@H](NC(=O)[C@H]1[C@@H]3COC[C@@H]31)C(=O)N1CCC[C@H](N1)C(=O)OCC(C)(C)C2 [RMC-7977],"sensitivity of CYPA-high versus CYPA-low cells, inhibition of cell proliferation","[1]; NCI-H358, doxycycline-inducible CYPA, 120 h",eightfold
same,"Proliferation, H358 CypA high (+ 0.1 µg/ml dox)",[1]; RMC-7977 0.0152 nM,114.566 and 114.478 and 102.697 and 95.6358
same,"Proliferation, H358 CypA high (- dox)",[1]; RMC-7977 0.0152 nM,114.881 and 112.875 and 101.544 and 96.9285
same,"Proliferation, H358 CypA low (+ 0.1 µg/ml dox)",[1]; RMC-7977 0.0152 nM,109.975 and 111.873 and 103.465 and 96.8877
same,"Proliferation, H358 CypA low (- dox)",[1]; RMC-7977 0.0152 nM,131.295 and 170.353 and 103.153 and 109.53
same,"Proliferation, H358 CypA high (+ 0.1 µg/ml dox)",[1]; RMC-7977 0.0457 nM,102.073 and 87.0456
same,"Proliferation, H358 CypA high (- dox)",[1]; RMC-7977 0.0457 nM,94.1146 and 92.3438
same,"Proliferation, H358 CypA low (+ 0.1 µg/ml dox)",[1]; RMC-7977 0.0457 nM,104.393 and 103.775
same,"Proliferation, H358 CypA low (- dox)",[1]; RMC-7977 0.0457 nM,101.295 and 103.944
same,"Proliferation, H358 CypA high (+ 0.1 µg/ml dox)",[1]; RMC-7977 0.41 nM,40.4066 and 38.4296
same,"Proliferation, H358 CypA high (- dox)",[1]; RMC-7977 0.41 nM,99.8914 and 99.4838
same,"Proliferation, H358 CypA low (+ 0.1 µg/ml dox)",[1]; RMC-7977 0.41 nM,94.3293 and 90.7108
same,"Proliferation, H358 CypA low (- dox)",[1]; RMC-7977 0.41 nM,110.992 and 108.667
same,"Proliferation, H358 CypA high (+ 0.1 µg/ml dox)",[1]; RMC-7977 3.70 nM,4.175 and 3.964
same,"Proliferation, H358 CypA high (- dox)",[1]; RMC-7977 3.70 nM,92.1373 and 96.6037
same,"Proliferation, H358 CypA low (+ 0.1 µg/ml dox)",[1]; RMC-7977 3.70 nM,44.8323 and 42.163
same,"Proliferation, H358 CypA low (- dox)",[1]; RMC-7977 3.70 nM,108.382 and 108.201
same,"Proliferation, H358 CypA high (+ 0.1 µg/ml dox)",[1]; RMC-7977 11.11 nM,1.059 and 0.9033
same,"Proliferation, H358 CypA high (- dox)",[1]; RMC-7977 11.11 nM,92.3418 and 100.036
same,"Proliferation, H358 CypA low (+ 0.1 µg/ml dox)",[1]; RMC-7977 11.11 nM,22.8241 and 21.8177
same,"Proliferation, H358 CypA low (- dox)",[1]; RMC-7977 11.11 nM,112.468 and 108.323
same,"Proliferation, H358 CypA high (+ 0.1 µg/ml dox)",[1]; RMC-7977 33.33 nM,0.7359 and 0.8327
same,"Proliferation, H358 CypA high (- dox)",[1]; RMC-7977 33.33 nM,92.8182 and 94.1066
same,"Proliferation, H358 CypA low (+ 0.1 µg/ml dox)",[1]; RMC-7977 33.33 nM,11.066 and 10.8911
same,"Proliferation, H358 CypA low (- dox)",[1]; RMC-7977 33.33 nM,104.142 and 111.18
same,"Proliferation, H358 CypA high (+ 0.1 µg/ml dox)",[1]; RMC-7977 100.00 nM,0.6202 and 0.4579
same,"Proliferation, H358 CypA high (- dox)",[1]; RMC-7977 100.00 nM,94.8777 and 89.8025
same,"Proliferation, H358 CypA low (+ 0.1 µg/ml dox)",[1]; RMC-7977 100.00 nM,7.141 and 7.102
same,"Proliferation, H358 CypA low (- dox)",[1]; RMC-7977 100.00 nM,104.79 and 108.679
same,"Proliferation, H358 CypA high (+ 0.1 µg/ml dox)",[1]; RMC-7977 300.00 nM,0.5256 and 0.2817
same,"Proliferation, H358 CypA high (- dox)",[1]; RMC-7977 300.00 nM,83.7998 and 85.0113
same,"Proliferation, H358 CypA low (+ 0.1 µg/ml dox)",[1]; RMC-7977 300.00 nM,5.455 and 5.338
same,"Proliferation, H358 CypA low (- dox)",[1]; RMC-7977 300.00 nM,79.1522 and 100.975
same,EC50,[2],5.06 nM
same,EC50,[3],9.5 nM
same,EC50,[4],34.5 nM
same,EC50,[5],17.2 nM
same,EC50,[6],21.2 nM
same,EC50,[7],23.7 nM
same,EC50,[8],181 nM
same,EC50,[9],102 nM
same,EC50,[10],49.7 nM
same,EC50,[11],142 nM
same,EC50,[12],53.9 nM
same,EC50,[13],145 nM
same,EC50,[14],57.7 nM
same,EC50,[15],47.7 nM
